Columns and labels:
Progesterone receptor = target: T1, Progesterone receptor (Homo sapiens, UniProt P06401); test: Antagonistic activity against human progesterone receptor B (hPR-B) in co-transfected CV-1 cells.; assay type: functional, cell-based
T1 sequence (P06401 whole entry): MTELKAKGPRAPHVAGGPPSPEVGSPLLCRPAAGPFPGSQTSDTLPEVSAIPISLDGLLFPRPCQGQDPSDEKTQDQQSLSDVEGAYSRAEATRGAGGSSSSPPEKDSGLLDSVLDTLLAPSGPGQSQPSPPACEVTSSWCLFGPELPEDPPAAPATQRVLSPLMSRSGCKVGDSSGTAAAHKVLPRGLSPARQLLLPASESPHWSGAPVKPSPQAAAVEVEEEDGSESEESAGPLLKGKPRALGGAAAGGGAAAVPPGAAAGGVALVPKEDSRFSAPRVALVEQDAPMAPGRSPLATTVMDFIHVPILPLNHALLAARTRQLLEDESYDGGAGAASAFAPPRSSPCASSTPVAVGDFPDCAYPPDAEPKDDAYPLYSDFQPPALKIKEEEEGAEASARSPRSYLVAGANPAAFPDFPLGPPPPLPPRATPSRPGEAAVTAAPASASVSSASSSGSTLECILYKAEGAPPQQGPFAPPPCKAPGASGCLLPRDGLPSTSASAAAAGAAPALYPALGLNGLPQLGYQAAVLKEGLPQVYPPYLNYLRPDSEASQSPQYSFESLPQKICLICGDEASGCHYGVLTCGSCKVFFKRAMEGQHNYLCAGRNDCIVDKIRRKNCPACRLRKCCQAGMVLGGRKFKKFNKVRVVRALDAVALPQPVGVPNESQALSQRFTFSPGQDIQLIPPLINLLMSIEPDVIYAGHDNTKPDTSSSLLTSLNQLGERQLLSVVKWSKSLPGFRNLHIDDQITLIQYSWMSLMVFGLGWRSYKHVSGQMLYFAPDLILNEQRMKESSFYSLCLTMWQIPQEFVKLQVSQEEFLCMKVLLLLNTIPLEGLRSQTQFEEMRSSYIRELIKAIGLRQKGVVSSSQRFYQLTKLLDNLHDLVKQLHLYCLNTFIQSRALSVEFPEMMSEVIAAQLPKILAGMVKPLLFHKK

Androgen receptor [1] = target: T2, Androgen receptor (Homo sapiens, UniProt P10275)
T2 sequence (P10275 whole entry): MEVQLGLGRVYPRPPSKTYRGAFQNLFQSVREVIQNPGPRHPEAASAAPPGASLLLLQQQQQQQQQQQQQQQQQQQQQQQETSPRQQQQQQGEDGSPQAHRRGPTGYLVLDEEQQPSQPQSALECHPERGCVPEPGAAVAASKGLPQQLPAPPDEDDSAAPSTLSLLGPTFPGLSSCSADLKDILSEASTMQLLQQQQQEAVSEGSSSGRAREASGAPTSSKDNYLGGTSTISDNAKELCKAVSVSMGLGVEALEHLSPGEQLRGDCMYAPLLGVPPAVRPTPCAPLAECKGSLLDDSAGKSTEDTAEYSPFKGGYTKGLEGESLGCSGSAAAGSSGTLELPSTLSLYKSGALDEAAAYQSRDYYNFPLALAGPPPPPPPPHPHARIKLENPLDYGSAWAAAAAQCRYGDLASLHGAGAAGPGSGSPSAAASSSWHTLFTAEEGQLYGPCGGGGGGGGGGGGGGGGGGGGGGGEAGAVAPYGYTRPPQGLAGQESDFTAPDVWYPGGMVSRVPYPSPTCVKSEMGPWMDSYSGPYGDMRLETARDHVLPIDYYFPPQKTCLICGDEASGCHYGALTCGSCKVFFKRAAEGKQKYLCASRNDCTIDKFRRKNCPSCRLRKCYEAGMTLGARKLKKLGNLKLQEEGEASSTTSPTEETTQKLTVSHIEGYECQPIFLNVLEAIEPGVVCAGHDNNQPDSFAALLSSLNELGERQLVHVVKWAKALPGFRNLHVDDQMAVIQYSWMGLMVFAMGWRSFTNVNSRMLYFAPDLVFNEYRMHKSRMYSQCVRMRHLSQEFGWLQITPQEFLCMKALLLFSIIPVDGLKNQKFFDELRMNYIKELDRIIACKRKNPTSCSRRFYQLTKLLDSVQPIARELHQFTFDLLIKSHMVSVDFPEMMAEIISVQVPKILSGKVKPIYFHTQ
Description: Antagonistic activity against human androgen receptor (hAR) in co-transfected CV-1 cells.

Androgen receptor [2] = target: T2, Androgen receptor; test: biochemical
Description: Binding affinity for human androgen receptor in transiently-transfected COS-1 cells.

[3] = target: T3, Progesterone receptor (Homo sapiens) (UniProt P06401); test: Efficacy as a function of maximal inhibition against human progesterone receptor B (hPR-B).
T3 sequence (whole entry): T1 sequence (P06401 whole entry)

SMILES | IC50 (Progesterone receptor) [nM] | IC50 (Androgen receptor [1]) [nM] | Ki (Androgen receptor [2]) [nM] | Efficacy [3] [%]
CC1=CC(C)(C)N(C)c2cc3nc(O)cc(C(F)(F)F)c3cc21 | 1680 | 156 | 695 | 55
CC1CC(C)(C)Nc2cc3nc(O)cc(C(F)(F)F)c3cc21 (stereo unspecified) | 231 | – | – | 86
CCC1Cc2cc3c(C(F)(F)F)cc(O)nc3cc2NC1(C)C (stereo unspecified) | – | – | – | 82
CC1=CC(C)(C)Nc2cc3nc(O)cc(C(F)(F)F)c3cc21 | – | – | – | 62
CC1=C(C)C(C)(C)Nc2cc3nc(O)cc(C(F)(F)F)c3cc21 | – | – | – | 65
CC1(C)CCc2cc3c(C(F)(F)F)cc(O)nc3cc2N1 | – | – | – | 80
CC(=O)O[C@]1(C(C)=O)CC[C@H]2[C@@H]3C=C(Cl)C4=CC(=O)[C@@H]5C[C@@H]5[C@]4(C)[C@H]3CC[C@@]21C | – | – | – | 12
CC1=CC(C)(C)N(C)c2cc3c(cc21)c(C(F)(F)F)cc(=O)n3C | 136 | 46 | 39 | 91
CC1c2cc3c(C(F)(F)F)cc(O)nc3cc2NC(C)(C)C1(C)C (stereo unspecified) | 362 | 57 | 358 | 93
CC(C)C1CC(C)(C)Nc2cc3nc(O)cc(C(F)(F)F)c3cc21 (stereo unspecified) | 3160 | 159 | 650 | 59
CCC1CC(C)(C)Nc2cc3nc(O)cc(C(F)(F)F)c3cc21 (stereo unspecified) | 274 | 27 | 54 | 74
CC1=CC(C)(C)Nc2cc3[nH]c(=O)cc(C(F)(F)F)c3cc21 | 49 | – | – | –
CCn1c(=O)cc(C(F)(F)F)c2cc3c(cc21)NC(C)(C)C=C3C | 1760 | 692 | 670 | 55
CCC1(C)CCc2cc3c(C(F)(F)F)cc(=O)[nH]c3cc2N1 (stereo unspecified) | 543 | – | – | –
CC1(C)C=Cc2cc3c(C(F)(F)F)cc(O)nc3cc2N1 | 390 | 58 | 86 | 81
CC1(C)Cc2cc3c(C(F)(F)F)cc(O)nc3cc2NC1(C)C | – | – | – | 98
CC12CCCN1c1cc3nc(O)cc(C(F)(F)F)c3cc1CC2 (stereo unspecified) | > 10000 | – | – | 11
CC(O)(CS(=O)(=O)c1ccc(F)cc1)C(=O)Nc1ccc(C#N)c(C(F)(F)F)c1 (stereo unspecified) [BICALUTAMIDE] | 1820 | – | – | 88
Cc1c2c(cc3c(C(F)(F)F)cc(=O)[nH]c13)C(C)CC(C)(C)N2 (stereo unspecified) | 3730 | 22 | 85 | –
CC1Cc2cc3c(C(F)(F)F)cc(O)nc3cc2NC1(C)C (stereo unspecified) | – | – | – | 89
CC1=CC(C)(C)Nc2cc3nc(O)cc(C)c3cc21 | – | – | – | 83
Cn1c(=O)cc(C(F)(F)F)c2cc3c(cc21)NC(C)(C)CC3 | 1240 | 36 | 56 | 74
CCCC1(C)CCc2cc3c(C(F)(F)F)cc(=O)[nH]c3cc2N1 (stereo unspecified) | 1140 | 42 | 69 | –

SMILES | IC50 (Progesterone receptor) [nM] | IC50 (Androgen receptor [1]) [nM] | Ki (Androgen receptor [2]) [nM] | Efficacy [3] [%]
CC1=CC(C)(C)Nc2cc3c(cc21)c(C(F)(F)F)cc(=O)n3C | 233 | 34 | 81 | 88
Cc1c2c(cc3c(C(F)(F)F)cc(=O)n(C)c13)C(C)CC(C)(C)N2 (stereo unspecified) | 2930 | 31 | 40 | 79
CC(C)(O)C(=O)Nc1ccc([N+](=O)[O-])c(C(F)(F)F)c1 | – | – | – | 90
CC1(C)CCc2cc3c(C(F)(F)F)cc(=O)[nH]c3cc2N1 | 330 | – | – | –
CC1(C)Cc2cc3c(C(F)(F)F)cc(=O)[nH]c3cc2NC1(C)C | 876 | 83 | 189 | –
CC1=C(C)C(C)(C)Nc2cc3[nH]c(=O)cc(C(F)(F)F)c3cc21 | 393 | 68 | 268 | –
Cc1c2c(cc3c(C(F)(F)F)cc(O)nc13)C(C)CC(C)(C)N2 (stereo unspecified) | – | – | – | 74
CCCC1(C)CCc2cc3c(C(F)(F)F)cc(O)nc3cc2N1 (stereo unspecified) | – | – | – | 86
CC1=CC(C)(C)Nc2c1cc1c(C(F)(F)F)cc(=O)n(C)c1c2C | 4400 | – | 874 | 68
C[C@H]1c2cc3c(C(F)(F)F)cc(O)nc3cc2NC(C)(C)[C@H]1C | 310 | – | – | 95
CCC1(C)CCc2cc3c(C(F)(F)F)cc(O)nc3cc2N1 (stereo unspecified) | – | – | – | 91
Cn1c(=O)cc(C(F)(F)F)c2cc3c(cc21)N1CCCC1(C)CC3 (stereo unspecified) | 398 | – | – | 84
CC1=CC(C)(C)Nc2cc3[nH]c(=O)cc(C)c3cc21 | 109 | 36 | 62 | –
CCC1(C)CCc2cc3c(C(F)(F)F)cc(=O)n(C)c3cc2N1C (stereo unspecified) | 1100 | 24 | 10 | 92
CCC1(CC)CCc2cc3c(C(F)(F)F)cc(O)nc3cc2N1 | 2710 | 27 | 102 | 81
C[C@@H]1c2cc3c(C(F)(F)F)cc(O)nc3cc2NC(C)(C)[C@H]1C | 735 | – | – | 92
CC1=CC(C)(C)Nc2c1cc1c(C(F)(F)F)cc(O)nc1c2C | – | – | – | 88
CN1c2cc3c(cc2CCC1(C)C)c(C(F)(F)F)cc(=O)n3C | 2200 | 19 | 17 | 85
CC1CC(C)(C)Nc2cc3c(cc21)c(C(F)(F)F)cc(=O)n3C (stereo unspecified) | 585 | 73 | 46 | 98
CCC1Cc2cc3c(C(F)(F)F)cc(=O)[nH]c3cc2NC1(C)C (stereo unspecified) | 2330 | 46 | 251 | –
CC1Cc2cc3c(C(F)(F)F)cc(=O)[nH]c3cc2NC1(C)C (stereo unspecified) | 348 | 30 | 73 | –
CCC1(C)CCc2cc3c(C(F)(F)F)cc(=O)n(C)c3cc2N1 (stereo unspecified) | 3280 | 48 | 69 | 73
Oc1cc(C(F)(F)F)c2cc3c(cc2n1)NC1(CCCCC1)CC3 | 1830 | 35 | 9 | 94
